Measurements: patent publication US12570923B2, “Tuning sulfonation and controlling oleo-furan surfactant compositions” (SIRONIX RENEWABLES, INC., priority 2021, dated 2026)

Experiments:
Format in all cases: physicochemical
[1] = Solubility in deionized water; settings: deionized water at 20° C.
Procedure: Certain surfactant properties and performance metrics of synthesized surfactants structures according to General Structure 1 (GS1), including several exemplary surfactant blends prepared according to the methods disclosed previously herein, were measured.

[2] = Krafft point (temperature below which the surfactant forms a solid precipitate)
Procedure: (§1) Certain surfactant properties and performance metrics of synthesized surfactants structures according to General Structure 1 (GS1), including several exemplary surfactant blends prepared according to the methods disclosed previously herein, were measured. […] For example, the α-OMFS-12-1/O surfactant with a sulfonate on the surfactant's alkyl chain provides faster wetting kinetics, as compared to the ring sulfonate 4-OMFS-12-1/O which has slower fabric wetting kinetics yet generates more foam in high shear conditions, or the disulfonate surfactant sulfonated on both the ring and alkyl chain (4,α-OMFS-12-1/O) which has slower fabric wetting and generates less foam than either of the aforementioned monosulfonates surfactants, yet has a higher solubility that can be helpful in building product formulations. Accordingly, these differing performance metrics can be leveraged by selecting the particular disclosed surfactant structure corresponding to the performance metrics useful in a specific application of the surfactant structure.

[3] = Critical micelle concentration
Procedure: as §1

[4] = Surface tension at critical micelle concentration; settings: at CMC
Procedure: as §1

Row | Solubility [1] [mg/mL] | Krafft Point [2] [°C] | CMC (critical micelle concentration) [3] [ppm] | Surface Tension at critical micelle concentration [4] [mN/m] | SMILES
1 | 900 | <0 | – | – | CCCCCCCCCCC(C(=O)c1cc(S(=O)(=O)[O-])c(C)o1)S(=O)(=O)[O-].[Na+].[Na+] (stereo not drawn) [Na^+ 4,α-OMFS-12-1/0]
2 | – | <0 | – | – | CCCCCCCCCCCCCCCCC(C(=O)c1cc(S(=O)(=O)[O-])c(C)o1)S(=O)(=O)[O-].[Na+].[Na+] (stereo not drawn) [Na^+ 4,α-OMFS-18-1/0]
3 | 600 | <0 | – | – | CCCCCCCCCCCCC(C(=O)c1cc(S(=O)(=O)[O-])c(C)o1)S(=O)(=O)[O-].[Na+].[Na+] (stereo not drawn) [Na^+ 4,α-OMFS-14-1/0]

Further lines, the compound ahead of its results:

Row | SMILES | Solubility [1] [mg/mL] | Krafft Point [2] [°C] | CMC (critical micelle concentration) [3] [ppm] | Surface Tension at critical micelle concentration [4] [mN/m]
4 | CCCCCCCCCCC(C(=O)c1ccc(C)o1)S(=O)(=O)[O-].[Na+] (stereo not drawn) [Na^+ α-OMFS-12-1/0] | 800 | <0 | – | –
5 | CCCCCCCCCCC(C(=O)c1cc(S(=O)(=O)O)c(C)o1)S(=O)(=O)O.N.N (stereo not drawn) [NH4^+4,α-OMFS-12-1/0] | 500 | <0 | 3545 | 39
6 | CCCCCCCCCCCC(=O)c1cc(S(=O)(=O)[O-])c(C)o1.[Na+] [Na^+ 4-OMFS-12-1/0] | 800 | <0 | 1480 | 42
